The values that follow come from patent US20250331519A1, “HERBICIDAL DERIVATIVES” (SYNGENTA CROP PROTECTION AG, priority 2022, published 2025).

What all share (assay type): in vivo
Test [1] has as its system Echinochloa crus-galli (ECHCG). The test can be described thus: Pre-emergence herbicidal glasshouse test. To be noted: evaluated after 13 days, five-point scale.
The subject of test [2] is Amaranthus retoflexus (AMARE). The test can be described thus: Pre-emergence herbicidal glasshouse test. To be noted: evaluated after 13 days, five-point scale.
Test [3] relates to Ipomoea hederacea (IPOHE). Briefly: Pre-emergence herbicidal glasshouse test. To be noted: evaluated after 13 days, five-point scale.
The subject of test [4] is Echinochloa crus-galli (ECHCG). The test can be described thus: Post-emergence herbicidal glasshouse test. To be noted: sprayed after 8 days cultivation, evaluated after 13 days, five-point scale. The procedure: (§1) Seeds of a variety of test species are sown in standard soil in pots (Ipomoea hederacea (IPOHE), Setaria faberi (SETFA), Zea mays (ZEAMX), Echinochloa crus-galli (ECHCG), Amaranthus palmeri (AMAPA), Amaranthus retoflexus (AMARE)). After 8 days cultivation under controlled conditions in a glasshouse (at 24° C./16° C., day/night; 14 hours light; 65% humidity), the plants are sprayed with an aqueous spray solution derived from the formulation of the technical active ingredient in acetone/water (50:50) solution containing 0.5% Tween 20 (polyoxyethelyene sorbitan monolaurate, CAS RN 9005-64-5). Compounds are applied at 1000 g/ha unless otherwise stated. The test plants are then grown in a glasshouse under controlled conditions in a glasshouse (at 24° C./16° C., day/night; 14 hours light; 65% humidity) and watered twice daily. After 13 days the test is evaluated for the percentage damage caused to the plant. The biological activities are shown in the following table on a five-point scale (5=81-100%; 4=61-80%; 3=41-60%; 2=21-40%; 1=0-20%; -=not tested).

The subject of test [5] is Amaranthus retoflexus (AMARE). The test can be described thus: Post-emergence herbicidal glasshouse test. As to conditions: sprayed after 8 days cultivation, evaluated after 13 days, five-point scale. As for the experimental part: as §1
Test [6] relates to Ipomoea hederacea (IPOHE). The test can be described thus: Post-emergence herbicidal glasshouse test. As to conditions: sprayed after 8 days cultivation, evaluated after 13 days, five-point scale. As for the experimental part: as §1
For test [7], the system named is Setaria faberi (SETFA). The test can be described thus: Post-emergence herbicidal glasshouse test. To be noted: sprayed after 8 days cultivation, evaluated after 13 days, five-point scale. As for the experimental part: as §1
The test system of test [8] is Amaranthus palmeri (AMAPA). Briefly: Post-emergence herbicidal glasshouse test. To be noted: sprayed after 8 days cultivation, evaluated after 13 days, five-point scale. As for the experimental part: as §1
For test [9], the system named is Zea mays (ZEAMX). The test can be described thus: Post-emergence herbicidal glasshouse test. As to conditions: sprayed after 8 days cultivation, evaluated after 13 days, five-point scale. As for the experimental part:
as §1

Test [10] deals with Amaranthus palmeri (AMAPA). The test can be described thus: Pre-emergence herbicidal glasshouse test. As to conditions: evaluated after 13 days, five-point scale.
The subject of test [11] is Setaria faberi (SETFA). Briefly: Pre-emergence herbicidal glasshouse test. To be noted: evaluated after 13 days, five-point scale.
For test [12], the system named is Zea mays (ZEAMX). Briefly: Pre-emergence herbicidal glasshouse test. To be noted: evaluated after 13 days, five-point scale.

The structures appear in SMILES notation.

`CCn1c(C)c(-n2ccc(C(F)(F)F)n2)c(=O)c(C(=O)O)c1-c1ccc(Cl)c(Cl)c1` [Compound 1, 2-(3,4-dichlorophenyl)-1-ethyl-6-methyl-4-oxo-5-[3-(trifluoromethyl)pyrazol-1-yl]pyridine-3-carboxylic acid]: the “percentage damage caused to the plant, ECHCG” value is recorded as 0 in [1] (1000 g/ha) and 1 (1=0-20%) in test [4] (1000 g/ha). In addition, the entries for the “percentage damage caused to the plant, AMARE” value in test [2] (1000 g/ha) and in test [5] (1000 g/ha) were 0 and 2 (2=21-40%), respectively. Moreover, the “percentage damage caused to the plant, IPOHE” value in test [3] (1000 g/ha) is given as 4 (4=61-80%); in [6] (1000 g/ha) it was 2 (2=21-40%). Besides, the “percentage damage caused to the plant, SEFTA” value in the test on Setaria faberi (SETFA) [7] (1000 g/ha) and in the test with Setaria faberi (SETFA) [11] (1000 g/ha) was 1 (1=0-20%) each time. For the same molecule, the “percentage damage caused to the plant, AMAPA” value in test [8] (1000 g/ha) is reported as 3 (3=41-60%); in [10] (1000 g/ha) it was 0. Also, the “percentage damage caused to the plant, ZEAMX” value in the test on Zea mays (ZEAMX) [9] (1000 g/ha) is 1 (1=0-20%); in the test with Zea mays (ZEAMX) [12] (1000 g/ha), 0.
Turning to `CCn1c(C)c(-n2ccc(Cl)n2)c(=O)c(C(=O)O)c1-c1ccc(Cl)c(Cl)c1` [Compound 2, 5-(3-chloropyrazol-1-yl)-2-(3,4-dichlorophenyl)-1-ethyl-6-methyl-4-oxo-pyridine-3-carboxylic acid], the “percentage damage caused to the plant, ECHCG” value is recorded as 0 in test [1] (1000 g/ha) and 4 (4=61-80%) in test [4] (1000 g/ha). Moreover, the “percentage damage caused to the plant, IPOHE” value in [3] (1000 g/ha) and in [6] (1000 g/ha) was 4 (4=61-80%) each time. In addition, the results for the “percentage damage caused to the plant, SEFTA” value in the test with Setaria faberi (SETFA) [7] (1000 g/ha) and in the test on Setaria faberi (SETFA) [11] (1000 g/ha) were 4 (4=61-80%) and 3 (3=41-60%), respectively. The “percentage damage caused to the plant, ZEAMX” value in the test with Zea mays (ZEAMX) [9] (1000 g/ha) is reported as 3 (3=41-60%); in the test on Zea mays (ZEAMX) [12] (1000 g/ha) it was 1 (1=0-20%).
As for `CCn1c(C)c(-n2cc(Cl)cn2)c(=O)c(C(=O)O)c1-c1ccc(Cl)c(Cl)c1` [Compound 3, 5-(4-chloropyrazol-1-yl)-2-(3,4-dichlorophenyl)-1-ethyl-6-methyl-4-oxo-pyridine-3-carboxylic acid], the “percentage damage caused to the plant, ECHCG” value is 1 (1=0-20%) in [1] (250 g/Ha) and 3 (3=41-60%) in test [4] (250 g/Ha). The “percentage damage caused to the plant, AMARE” value in test [2] (250 g/Ha) is on record as 0; in [5] (250 g/Ha), 3 (3=41-60%). For the same molecule, the “percentage damage caused to the plant, IPOHE” value in test [3] (250 g/Ha) was 0; in [6] (250 g/Ha), 2 (2=21-40%). In addition, the “percentage damage caused to the plant, SEFTA” value in the test on Setaria faberi (SETFA) [7] (250 g/Ha) is 3 (3=41-60%); in the test with Setaria faberi (SETFA) [11] (250 g/Ha), 2 (2=21-40%). Moreover, the “percentage damage caused to the plant, AMAPA” value is listed as 3 (3=41-60%) in [8] (250 g/Ha) and 0 in test [10] (250 g/Ha). Besides, the “percentage damage caused to the plant, ZEAMX” value in the test with Zea mays (ZEAMX) [9] (250 g/Ha) is on record as 2 (2=21-40%); with Zea mays (ZEAMX) [12] (250 g/Ha), 0.
